Assay: recombinant barcode read abundance after kanamycin selection (control-corrected) (log10(CPM+1)); higher = more efficient recombination; sequences stand for … in AGTGCAGAGAAAATCGGCCAGTTTTCTCTGCCTGCAGTCCGCATGCCGT…AGATTTATGCAGCGGACTGCCTTTCTCCCAAAGTGATAAACCGGACAGTATCATGGACCGGTTTTCCCGGTAATCCGTATTTGCAAGGTTGGTTTCACT; site = the 11-nt target
How it was run: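 Reported as log10(CPM+1), each value stands for recombination efficiency. That efficiency is the averaged, control-corrected counts per million of barcodes found at recombinant junctions. Cells from a pooled E. coli library pairing targets with IS621 bridge RNA target-binding loops were plated twice on chloramphenicol/ampicillin LB agar (control) and twice on chloramphenicol/ampicillin/kanamycin with 0.1 mM IPTG.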
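Further: IS621 recombinase and bridge RNA in Escherichia coli cells.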

Sequence	recombinant barcode read abundance (log10)
GGCTAGCCTTGGGTTCTAACCTGTTGCCT (site TGTTAGCCTAG)	0
GGCTCCTCTTGGGTTCTAACCTGTTGCAT (site GGATCCTCTAT)	0.0148
GGCTCCTCTTGGGTTCTAACCTGTTGCAT (site GGCTCCTCTAT)	0.907
GGCTCCTCTTGGGTTCTAACCTGTTGCCA (site GGCTCCTCTTG)	0.674
GGCTCCTCTTGGGTTCTAACCTGTTGCCA (site GGTTCATCTTG)	0.013
GGCTGCCCTTGGGTTCTAACCTGTTGCCT (site GACTGCCCTAG)	0.156
GGCTGCCCTTGGGTTCTAACCTGTTGCCT (site GCCTGCCCTAG)	0.57
GGCTGCCCTTGGGTTCTAACCTGTTGCCT (site GGCTGCCCTAG)	0.258
GGCTGCCCTTGGGTTCTAACCTGTTGCCT (site GTCTGCCCTAG)	0.149
GGGAACCCTTGGGTTCTAACCTGTTGCTC (site GGGAACCCTAA)	0.131
GGGAACCCTTGGGTTCTAACCTGTTGCTC (site GGGAACCCTCA)	0.659
GGGAACCCTTGGGTTCTAACCTGTTGCTC (site GGGAACCCTGA)	1.16
GGGAACCCTTGGGTTCTAACCTGTTGCTC (site GGGAACCCTTA)	0.509
GGGAACCCTTGGGTTCTAACCTGTTGCTT (site GGGAACCCTAA)	1.25
GGGAACCCTTGGGTTCTAACCTGTTGCTT (site GGGAACCCTCA)	0.386
GGGAACCCTTGGGTTCTAACCTGTTGCTT (site GGGAACCCTGA)	0.0941
GGGAACCCTTGGGTTCTAACCTGTTGCTT (site GGGAACCCTTA)	0.149
GGGAAGACTTGGGTTCTAACCTGTTGCCT (site GGAAAGACTAG)	1.56
GGGAAGACTTGGGTTCTAACCTGTTGCCT (site GGCAAGACTAG)	0.0845
GGGAAGACTTGGGTTCTAACCTGTTGCCT (site GGGAAGACTAG)	2.55
GGGAAGACTTGGGTTCTAACCTGTTGCCT (site GGTAAGACTAG)	0.333
GGGAATGCTTGGGTTCTAACCTGTTGCCT (site GGGAACGCTAG)	0.108
GGGAATGCTTGGGTTCTAACCTGTTGCCT (site GGGAATGCTAG)	2.35
GGGACAGCTTGGGTTCTAACCTGTTGCCT (site GAGACAACTAG)	0.15
GGGACAGCTTGGGTTCTAACCTGTTGCCT (site GGGACAGCTAG)	1.12
GGGACCTCTTGGGTTCTAACCTGTTGCGT (site GGGACCTCTAC)	2.68

Sequence	recombinant barcode read abundance (log10)
GGGACCTCTTGGGTTCTAACCTGTTGCGT (site GGGACCTCTCC)	0.201
GGGACGCCTTGGGTTCTAACCTGTTGCAT (site GAGCCGCCTAT)	0.0802
GGGACGCCTTGGGTTCTAACCTGTTGCAT (site GGGACGCCTAT)	1.17
GGGATACCTTGGGTTCTAACCTGTTGCTA (site GGGATACCTTA)	1.37
GGGATACCTTGGGTTCTAACCTGTTGCTA (site TATGGTACTAC)	0.292
GGGCACTCTTGGGTTCTAACCTGTTGCGT (site GGGCACTCTAA)	0.559
GGGCACTCTTGGGTTCTAACCTGTTGCGT (site GGGCACTCTAC)	2.97
GGGCACTCTTGGGTTCTAACCTGTTGCGT (site GGGCACTCTAG)	0.161
GGGCACTCTTGGGTTCTAACCTGTTGCGT (site GGGCACTCTAT)	2.27
GGGCTCACTTGGGTTCTAACCTGTTGCCT (site GGGCTCACTAG)	0.983
GGGCTCACTTGGGTTCTAACCTGTTGCCT (site GGTCCCACTAG)	0.184
GGGCTCCCTTGGGTTCTAACCTGTTGCCG (site GGGCTCCCTCG)	1.92
GGGCTCCCTTGGGTTCTAACCTGTTGCCG (site TACAATTCTAT)	0.128
GGGCTTACTTGGGTTCTAACCTGTTGCCT (site GAGCTTACTAG)	0.695
GGGCTTACTTGGGTTCTAACCTGTTGCCT (site GCGCTTACTAG)	0.362
GGGCTTACTTGGGTTCTAACCTGTTGCCT (site GGGCTTACTAG)	0.178
GGGCTTACTTGGGTTCTAACCTGTTGCCT (site GTGCTTACTAG)	0.325
GGGGACCCTTGGGTTCTAACCTGTTGCGG (site GGGGACCCTAC)	2.34
GGGGACCCTTGGGTTCTAACCTGTTGCGG (site GGGGACCCTCC)	3.01
GGGGACCCTTGGGTTCTAACCTGTTGCGG (site GGGGACCCTGC)	0.667
GGGGACCCTTGGGTTCTAACCTGTTGCGG (site GGGGACCCTTC)	1.55
GGGGACCCTTGGGTTCTAACCTGTTGCGT (site GGGGACCCTAC)	3.4
GGGGACCCTTGGGTTCTAACCTGTTGCGT (site GGGGACCCTCC)	1.46
GGGGACCCTTGGGTTCTAACCTGTTGCGT (site GGGGACCCTGC)	1.44
GGGGACCCTTGGGTTCTAACCTGTTGCGT (site GGGGACCCTTC)	1.18
GGGGAGTCTTGGGTTCTAACCTGTTGCTT (site GGGGAGCCTCA)	0.16

Sequence	recombinant barcode read abundance (log10)
GGGGAGTCTTGGGTTCTAACCTGTTGCTT (site GGGGAGTCTAA)	2.26
GGGGCAACTTGGGTTCTAACCTGTTGCTA (site CGGGCTACTTA)	0.0424
GGGGCAACTTGGGTTCTAACCTGTTGCTA (site GGGGCAACTTA)	0.388
GGGGCACCTTGGGTTCTAACCTGTTGCCT (site GGGGCACCTAA)	0.216
GGGGCACCTTGGGTTCTAACCTGTTGCCT (site GGGGCACCTAC)	0.0542
GGGGCACCTTGGGTTCTAACCTGTTGCCT (site GGGGCACCTAG)	1.15
GGGGCACCTTGGGTTCTAACCTGTTGCCT (site GGGGCACCTAT)	0.556
GGGGCACCTTGGGTTCTAACCTGTTGCTT (site GGGGCACCTAA)	2.29
GGGGCACCTTGGGTTCTAACCTGTTGCTT (site GGGGCACCTAC)	0.68
GGGGCACCTTGGGTTCTAACCTGTTGCTT (site GGGGCACCTAG)	1.48
GGGGCACCTTGGGTTCTAACCTGTTGCTT (site GGGGCACCTAT)	2.06
GGGGCGTCTTGGGTTCTAACCTGTTGCTT (site GGGGCATCTAA)	1.54
GGGGCGTCTTGGGTTCTAACCTGTTGCTT (site GGGGCCTCTAA)	0.0129
GGGGCGTCTTGGGTTCTAACCTGTTGCTT (site GGGGCGTCTAA)	2.16
GGGGCGTCTTGGGTTCTAACCTGTTGCTT (site GGGGCTTCTAA)	0.0767
GGGGCTACTTGGGTTCTAACCTGTTGCCT (site GGGGCTACTAG)	0.396
GGGGCTACTTGGGTTCTAACCTGTTGCCT (site GGGGCTACTGT)	0.183
GGGGTCCCTTGGGTTCTAACCTGTTGCTT (site CTCAAAGCTTC)	0.0621
GGGGTCCCTTGGGTTCTAACCTGTTGCTT (site GGGGTCCCTAA)	2.79
GGGTCCACTTGGGTTCTAACCTGTTGCAT (site GGGTCCACTAA)	0.481
GGGTCCACTTGGGTTCTAACCTGTTGCAT (site GGGTCCACTAC)	0.13
GGGTCCACTTGGGTTCTAACCTGTTGCAT (site GGGTCCACTAG)	0.699
GGGTCCACTTGGGTTCTAACCTGTTGCAT (site GGGTCCACTAT)	2.17
GGGTCCACTTGGGTTCTAACCTGTTGCGT (site GGGTCCACTAA)	0.239
GGGTCCACTTGGGTTCTAACCTGTTGCGT (site GGGTCCACTAC)	2.82

— the supplement of paper PMC11208160
